We go through twelve compounds from PubChem BioAssay AID180 (DTP/NCI, 2004).

The structures appear in SMILES notation. “And” between values parts separate entries of the source, which are not always exact repeats. Equal values may be shown once.

The test system of this experiment is BDF1 mice, Adenocarcinoma 755 s.c., tumor weight T/C. The experiment in a line: NCI In Vivo Anticancer Drug Screen. Data for tumor model Adenocarcinoma 755 (subcutaneous) in B6D2F1 (BDF1) mice. The note with it: endpoint: mean tumor weight, higher = larger tumour. How it is done: The antitumor activity of compounds was measured in mice bearing transplantable tumors. Survival or tumor size were measured and the results are expressed as the measurement made in the treated group (T) divided by the measurement made in the vehicle treated control group (C). The tumor model used in this assay is Adenocarcinoma 755 (subcutaneous) in B6D2F1 (BDF1) mice

Setting [1] is: dose: 4.0 mg/kg/injection, schedule: Q01DX011 (ip), vehicle: methylcellulose (MC).
The mark [2] stands for this setting: dose: 8.0 mg/kg/injection, schedule: Q01DX011 (ip), vehicle: methylcellulose (MC).
[3] abbreviates: dose: 16.0 mg/kg/injection, schedule: Q01DX011 (ip), vehicle: methylcellulose (MC).

In general, T/C refers to the result in the treated group divided by that in the control group, in per cent. On to `C/C(=N\NC(=O)c1ccncc1)c1cccc(Br)c1`, for which the T/C reads like this: (dose: 0.9 mg/kg/injection, schedule: Q01DX011 (ip), vehicle: carboxymethylcellulose (CMC)) 116 % of control; (dose: 3.7 mg/kg/injection, schedule: Q01DX011 (ip), vehicle: carboxymethylcellulose (CMC)) 154 % of control; (dose: 7.5 mg/kg/injection, schedule: Q01DX011 (ip), vehicle: methylcellulose (MC)) 34 % of control and 57 % of control; (dose: 15.0 mg/kg/injection, schedule: Q01DX011 (ip), vehicle: methylcellulose (MC)) 65 % of control and 87 % of control.
`N#[N+]c1nc[nH]c1C(N)=O`: the T/C (dose: 1.25 mg/kg/injection, schedule: Q01DX011 (ip), vehicle: methylcellulose (MC)) was 61 % of control.
In the case of `CNc1ncnc2c1ncn2C1CCCO1` (stereo unspecified), the T/C (dose: 50.0 mg/kg/injection, schedule: Q01DX011 (ip), vehicle: saline) was 119 % of control; the T/C (dose: 100.0 mg/kg/injection, schedule: Q01DX011 (ip), vehicle: saline) is 86 % of control; the T/C (dose: 200.0 mg/kg/injection, schedule: Q01DX011 (ip), vehicle: saline) is 51 % of control.
For the compound `CC(C)CSc1nc(N)nc2nc[nH]c12`, the T/C is 46 % of control (dose: 2.0 mg/kg/injection, schedule: Q01DX011 (ip), vehicle: methylcellulose (MC)); 30 % of control under setting [1]; 10 % of control under setting [2]; 6 % of control under setting [3]; 5 % of control (dose: 32.0 mg/kg/injection, schedule: Q01DX011 (ip), vehicle: methylcellulose (MC)); 4 % of control (dose: 64.0 mg/kg/injection, schedule: Q01DX011 (ip), vehicle: methylcellulose (MC)).
`CC(=O)NC1=C(N2CC2)C(=O)C(NC(C)=O)=C(N2CC2)C1=O`: the T/C reads like this: (dose: 0.02 mg/kg/injection, schedule: Q01DX011 (ip), vehicle: carboxymethylcellulose (CMC)) 91 % of control; (dose: 0.02 mg/kg/injection, schedule: Q01DX011 (ip), vehicle: methylcellulose (MC)) 71 % of control; (dose: 0.03 mg/kg/injection, schedule: Q01DX011 (ip), vehicle: carboxymethylcellulose (CMC)) 65 % of control; (dose: 0.05 mg/kg/injection, schedule: Q01DX011 (ip), vehicle: methylcellulose (MC)) 69 % of control; (dose: 0.06 mg/kg/injection, schedule: Q01DX011 (ip), vehicle: carboxymethylcellulose (CMC)) 51 % of control; (dose: 0.1 mg/kg/injection, schedule: Q01DX011 (ip), vehicle: methylcellulose (MC)) 50 % of control. Further, the T/C (dose: 0.12 mg/kg/injection, schedule: Q01DX011 (ip), vehicle: carboxymethylcellulose (CMC)) is 21 % of control.
`COC1C(OC(=O)/C=C/C=C/C=C/C=C/C(=O)O)CCC2(CO2)C1C1(C)OC1CC=C(C)C` (stereo unspecified): the T/C is, setting by setting: (dose: 2.5 mg/kg/injection, schedule: Q01DX011 (ip), vehicle: other) 49 % of control; (dose: 5.0 mg/kg/injection, schedule: Q01DX011 (ip), vehicle: other) 61 % of control; (dose: 5.0 mg/kg/injection, schedule: Q01DX011 (ip), vehicle: saline) 78 % of control; (dose: 10.0 mg/kg/injection, schedule: Q01DX011 (ip), vehicle: methylcellulose (MC)) 38 % of control; (dose: 10.0 mg/kg/injection, schedule: Q01DX011 (ip), vehicle: other) 40 % of control; (dose: 10.0 mg/kg/injection, schedule: Q01DX011 (ip), vehicle: saline) 94 % of control. Further, the T/C by setting is: (dose: 20.0 mg/kg/injection, schedule: Q01DX011 (ip), vehicle: methylcellulose (MC)) 28 % of control; (dose: 20.0 mg/kg/injection, schedule: Q01DX011 (ip), vehicle: other) 22 % of control; (dose: 20.0 mg/kg/injection, schedule: Q01DX011 (ip), vehicle: saline) 49 % of control; (dose: 40.0 mg/kg/injection, schedule: Q01DX011 (ip), vehicle: methylcellulose (MC)) 24 % of control; (dose: 40.0 mg/kg/injection, schedule: Q01DX011 (ip), vehicle: other) 18 % of control; (dose: 40.0 mg/kg/injection, schedule: Q01DX011 (ip), vehicle: saline) 63 % of control. Besides, the T/C by setting is: (dose: 80.0 mg/kg/injection, schedule: Q01DX011 (ip), vehicle: other) 26 % of control; (dose: 80.0 mg/kg/injection, schedule: Q01DX011 (ip), vehicle: saline) 58 % of control.
As to `Cn1c(=O)c2ncn(CC(=O)O)c2n(C)c1=O`, the T/C was 45 % of control (dose: 30.0 mg/kg/injection, schedule: Q01DX011 (ip), vehicle: carboxymethylcellulose (CMC)); 156 % of control (dose: 60.0 mg/kg/injection, schedule: Q01DX011 (ip), vehicle: carboxymethylcellulose (CMC)); 99 % of control (dose: 120.0 mg/kg/injection, schedule: Q01DX011 (ip), vehicle: carboxymethylcellulose (CMC)); 120 % of control (dose: 240.0 mg/kg/injection, schedule: Q01DX011 (ip), vehicle: carboxymethylcellulose (CMC)).
`CCc1nc(N)nc(N)c1-c1ccc(Cl)cc1`: the T/C by setting is: (dose: 3.0 mg/kg/injection, schedule: Q01DX011 (ip), vehicle: methylcellulose (MC)) 52 % of control; (dose: 6.0 mg/kg/injection, schedule: Q01DX011 (ip), vehicle: methylcellulose (MC)) 38 % of control; (dose: 6.25 mg/kg/injection, schedule: Q01DX011 (ip), vehicle: carboxymethylcellulose (CMC)) 77 % of control; (dose: 11.85 mg/kg/injection, schedule: Q01DX011 (ip), vehicle: carboxymethylcellulose (CMC)) 82 % of control; (dose: 12.0 mg/kg/injection, schedule: Q01DX011 (ip), vehicle: methylcellulose (MC)) 49 % of control; (dose: 12.5 mg/kg/injection, schedule: Q01DX011 (ip), vehicle: carboxymethylcellulose (CMC)) 99 % of control. Further, the T/C is, setting by setting: (dose: 23.7 mg/kg/injection, schedule: Q01DX011 (ip), vehicle: carboxymethylcellulose (CMC)) 116 % of control; (dose: 25.0 mg/kg/injection, schedule: Q01DX011 (ip), vehicle: carboxymethylcellulose (CMC)) 115 % of control; (dose: 25.0 mg/kg/injection, schedule: Q01DX011 (ip), vehicle: methylcellulose (MC)) 62 % of control; (dose: 47.4 mg/kg/injection, schedule: Q01DX011 (ip), vehicle: carboxymethylcellulose (CMC)) 105 % of control; (dose: 50.0 mg/kg/injection, schedule: Q01DX011 (ip), vehicle: carboxymethylcellulose (CMC)) 72 % of control; (dose: 50.0 mg/kg/injection, schedule: Q01DX011 (ip), vehicle: methylcellulose (MC)) 71 % of control. For the same compound, the T/C (dose: 62.5 mg/kg/injection, schedule: Q01DX011 (ip), vehicle: methylcellulose (MC)) is 43 % of control.
Consider `C[C@]12CCC(=O)C=C1CC[C@@H]1[C@@H]2[C@@H](O)C[C@@]2(C)[C@H]1CC[C@]2(O)C(=O)COC(=O)c1ccc([N+](=O)[O-])cc1Cl`, for which the T/C runs as follows: (dose: 25.0 mg/kg/injection, schedule: Q01DX011 (sc), vehicle: water) 43 % of control; (dose: 50.0 mg/kg/injection, schedule: Q01DX011 (sc), vehicle: water) 17 % of control; (dose: 100.0 mg/kg/injection, schedule: Q01DX011 (sc), vehicle: water) 23 % of control; (dose: 200.0 mg/kg/injection, schedule: Q01DX011 (sc), vehicle: water) 4 % of control.
Regarding `O=C(CCBr)NCCCCCCNC(=O)CCBr`, the T/C was 114 % of control (dose: 56.0 mg/kg/injection, schedule: Q01DX011 (ip), vehicle: methylcellulose (MC)); 67 % of control (dose: 113.0 mg/kg/injection, schedule: Q01DX011 (ip), vehicle: methylcellulose (MC)); 114 % of control (dose: 225.0 mg/kg/injection, schedule: Q01DX011 (ip), vehicle: methylcellulose (MC)).
With `C[C@]12CCC(=O)C=C1CC[C@@H]1[C@@H]2[C@@H](O)C[C@@]2(C)[C@H]1CC[C@]2(O)C(=O)COC(=O)CCC(=O)O`, the T/C (dose: 700.0 mg/kg/injection, schedule: Q01DX011 (sc), vehicle: steriod suspending solution) is 10 % of control.
On to `O=P(OCC1OC(n2cnc3c(=S)nc[nH]c32)C(O)C1O)(Oc1ccccc1)Oc1ccccc1` (stereo unspecified), for which the T/C runs as follows: under setting [1], 89 % of control; under setting [2], 88 % of control; under setting [3], 41 % of control; (dose: 31.0 mg/kg/injection, schedule: Q01DX011 (ip), vehicle: methylcellulose (MC)) 39 % of control; (dose: 62.0 mg/kg/injection, schedule: Q01DX011 (ip), vehicle: methylcellulose (MC)) 36 % of control; (dose: 125.0 mg/kg/injection, schedule: Q01DX011 (ip), vehicle: methylcellulose (MC)) 34 % of control.
